In ChEMBL document CHEMBL5247604, “Discovery of novel hybrids containing clioquinol-1-benzyl-1,2,3,6-tetrahydropyridine as multi-target-directed ligands (MTDLs) against Alzheimer's disease” (Eur J Med Chem, 2022):
Active and inactive are the calls of the source.

Experiments:
SH-SY5Y [1] = assay: Antialzheimer activity in human SH-SY5Y cells assessed as inhibition of GA-induced tau hyperphosphorylation at Ser396 residue at 0.1 to 3 uM incubated for 24 hrs by ELISA; type: functional, cell-based; details: dose 0.1-3 µM
[2] = target: T1, Amyloid-beta precursor protein (Homo sapiens, UniProt P05067); assay: Inhibition of AChE induced HFIP-pretreated amyloid beta (1 to 42 ) (unknown origin) aggregation incubated for 24 hr by Thioflavin T based fluorometric assay
T1 sequence (P05067 whole entry): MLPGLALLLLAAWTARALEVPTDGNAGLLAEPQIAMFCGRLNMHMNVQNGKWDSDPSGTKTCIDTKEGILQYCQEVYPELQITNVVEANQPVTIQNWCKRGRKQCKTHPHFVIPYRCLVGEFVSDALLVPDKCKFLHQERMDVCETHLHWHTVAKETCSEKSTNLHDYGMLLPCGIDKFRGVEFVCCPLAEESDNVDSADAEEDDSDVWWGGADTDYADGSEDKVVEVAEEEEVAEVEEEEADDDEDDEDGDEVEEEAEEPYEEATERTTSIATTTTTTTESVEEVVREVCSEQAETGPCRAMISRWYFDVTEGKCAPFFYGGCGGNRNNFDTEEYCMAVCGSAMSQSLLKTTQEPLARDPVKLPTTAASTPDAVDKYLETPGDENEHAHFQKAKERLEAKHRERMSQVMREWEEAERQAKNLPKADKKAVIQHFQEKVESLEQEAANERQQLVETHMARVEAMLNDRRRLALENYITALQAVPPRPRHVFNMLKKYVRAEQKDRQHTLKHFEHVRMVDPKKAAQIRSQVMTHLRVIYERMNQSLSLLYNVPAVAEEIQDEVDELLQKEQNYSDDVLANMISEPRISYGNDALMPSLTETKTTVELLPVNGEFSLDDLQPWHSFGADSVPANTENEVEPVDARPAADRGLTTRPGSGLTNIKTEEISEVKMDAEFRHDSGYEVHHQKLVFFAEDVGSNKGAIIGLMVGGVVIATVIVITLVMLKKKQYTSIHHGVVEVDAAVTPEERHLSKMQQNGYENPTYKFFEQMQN

[3] = Metal chelating activity assessed as Cu2+-compound complex formation by measuring red shift in presence of CuSO4 at 40 uM incubated for 30 mins by UV-Visible spectrophotometry
SH-SY5Y [4] = assay: Antioxidant activity against okadaic acid-induced ROS generation in human SH-SY5Y cells assessed as reduction in DCF fluorescence intensity pretreated for 24 hrs followed by okadaic acid addition for 24 hrs by DCFH-DA dye based fluorescence analysis; type: functional, cell-based
SH-SY5Y [5] = assay: Antialzheimer activity in human SH-SY5Y cells assessed as inhibition of GA-induced tau hyperphosphorylation at Ser199 residue at 0.1 to 3 uM incubated for 24 hrs by ELISA; type: functional, cell-based; details: dose 0.1-3 µM
[6] = Acute toxicity in ICR mouse assessed as altered water consumption at 1200 mg/kg, po and measured after 4 hrs; type: organism-based; details: in vivo
Mus musculus [7] = assay: Antialzheimer activity in scopolamine-induced cognitive impairment ICR mouse model assessed as time latency to reach target at 15 mg/kg,ip qd for 10 days followed by scopolmaine-stimulation measured on day 16 by Morris water maze test (Rvb= 71.89 +/- 25.59 sec); type: functional; details: time 10 day
[8] = Metal chelating activity assessed as Fe2+-compound complex formation by measuring red shift in presence of FeSO4 at 40 uM incubated for 30 mins by UV-Visible spectrophotometry
[9] = Acute toxicity in ICR mouse assessed as change in body weight at 1200 mg/kg, po and measured after 4 hrs; type: organism-based; details: in vivo
[10] = Acute toxicity in ICR mouse assessed as change in body weight at 1200 mg/kg, po and measured after 24 hrs; type: organism-based; details: in vivo
Acetylcholinesterase [11] = target: Acetylcholinesterase (Electrophorus electricus, UniProt O42275); assay: Inhibition of electric eel AChE using acetylthiocholine iodide as substrate preincubated for 15 mins followed by substrate addition by Ellman's method
Acetylcholinesterase (Electrophorus electricus, UniProt O42275), sequence (O42275 whole entry): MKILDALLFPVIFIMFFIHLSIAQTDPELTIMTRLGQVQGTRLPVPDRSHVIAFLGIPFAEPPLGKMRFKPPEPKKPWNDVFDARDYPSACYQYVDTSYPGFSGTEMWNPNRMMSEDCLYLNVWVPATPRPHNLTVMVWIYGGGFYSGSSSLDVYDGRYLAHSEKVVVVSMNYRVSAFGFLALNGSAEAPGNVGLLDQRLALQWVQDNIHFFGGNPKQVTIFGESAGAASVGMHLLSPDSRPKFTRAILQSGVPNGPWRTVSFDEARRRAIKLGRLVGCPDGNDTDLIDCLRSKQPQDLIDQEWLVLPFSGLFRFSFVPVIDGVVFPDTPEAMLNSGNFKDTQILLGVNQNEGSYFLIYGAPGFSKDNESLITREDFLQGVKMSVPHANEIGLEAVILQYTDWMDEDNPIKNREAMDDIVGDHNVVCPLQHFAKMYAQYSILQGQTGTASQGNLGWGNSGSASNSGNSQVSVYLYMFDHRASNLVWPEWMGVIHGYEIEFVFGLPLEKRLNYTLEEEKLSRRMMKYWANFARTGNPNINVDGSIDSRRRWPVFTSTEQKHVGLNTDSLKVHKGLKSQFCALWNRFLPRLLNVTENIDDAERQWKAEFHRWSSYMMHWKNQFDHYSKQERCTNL

[12] = Acute toxicity in ICR mouse assessed as altered food consumption at 1200 mg/kg, po and measured after 24 hrs; type: organism-based; details: in vivo
[13] = Acute toxicity in ICR mouse assessed as altered food consumption at 1200 mg/kg, po and measured after 14 days; type: organism-based; details: in vivo, 336 h, time 14 day
SH-SY5Y [14] = assay: Antioxidant activity against okadaic acid-induced ROS generation in human SH-SY5Y cells assessed as reduction in DCF fluorescence intensity at 1 to 10 uM pretreated for 24 hrs followed by okadaic acid addition for 24 hrs by DCFH-DA dye based fluorescence analysis; type: functional, cell-based; details: dose 1-10 µM
Mus musculus [15] = assay: Antialzheimer activity in human oligo-merized amyloid beta (1 to 42 residues)-induced cognitive impairment C57BL/6 mouse model assessed as increase in ratio of brain to body weight at 15 mg/kg,ip qd for 10 days by Morris water maze test; type: functional, organism-based; details: time 10.0 day
[16] = Acute toxicity in ICR mouse assessed as altered water consumption at 1200 mg/kg, po and measured after 24 hrs; type: organism-based; details: in vivo
[17] = Acute toxicity in ICR mouse assessed as mortality at 1200 mg/kg, po and measured after 4 hrs; type: organism-based; details: in vivo
[18] = Acute toxicity in ICR mouse assessed as altered food consumption at 1200 mg/kg, po and measured after 4 hrs; type: organism-based; details: in vivo
[19] = Acute toxicity in ICR mouse assessed as altered water consumption at 1200 mg/kg, po and measured after 14 days; type: organism-based; details: in vivo, 336 h, time 14 day
SH-SY5Y [20] = assay: (§1) Neuroprotective activity in human SH-SY5Y cells assessed as inhibition of okadaic acid-induced mitochondrial membrane potential by measuring increase in red-to-green fluorescence intensity ratio at 1 to 10 uM pretreated for 24 hrs followed by okadaic acid addition for 24 hrs by JC-1 dye based fluorescence analysis; type: functional, cell-based; details: dose 1-10 µM
SH-SY5Y [21] = assay: as §1, with “ratio” for “ratio at 1 to 10 uM”; type: functional, cell-based
[22] = target: T1, Amyloid-beta precursor protein; assay: Inhibition of Cu2+ induced amyloid beta (1 to 42 ) (unknown origin) aggregation assessed as reduction in fibrils incubated for 24 hr by TEM analysis
Mus musculus [23] = assay: Antialzheimer activity in human oligo-merized amyloid beta (1 to 42 residues)-induced cognitive impairment C57BL/6 mouse model assessed as increase duration in novel arm at 15 mg/kg,ip qd for 10 days by Y-maze test relative to control; type: functional, organism-based; details: time 10.0 day
[24] = Metal chelating activity assessed as Zn2+-compound complex formation by measuring red shift in presence of ZnCl2 at 40 uM incubated for 30 mins by UV-Visible spectrophotometry
SH-SY5Y [25] = assay: Antialzheimer activity in human SH-SY5Y cells assessed as inhibition of GA-induced tau hyperphosphorylation at Ser396 residue incubated for 24 hrs by ELISA; type: functional, cell-based
[26] = target: T1, Amyloid-beta precursor protein; assay: Inhibition of Cu2+ induced amyloid beta (1 to 42 ) (unknown origin) aggregation incubated for 24 hr by Thioflavin T based fluorometric assay
[27] = Acute toxicity in ICR mouse assessed as change in body weight at 1200 mg/kg, po and measured after 14 days; type: organism-based; details: in vivo, 336 h, time 14 day
Mus musculus [28] = assay: Antialzheimer activity in human oligo-merized amyloid beta (1 to 42 residues)-induced cognitive impairment C57BL/6 mouse model assessed as decrease TNF-alpha level in cortex at 15 mg/kg,ip qd for 10 days by ELISA; type: functional, organism-based; details: time 10.0 day
SH-SY5Y [29] = assay: Antialzheimer activity in human SH-SY5Y cells assessed as inhibition of GA-induced tau hyperphosphorylation at Ser199 residue incubated for 24 hrs by ELISA; type: functional, cell-based
[30] = target: T1, Amyloid-beta precursor protein; assay: Inhibition of amyloid beta (1 to 42 ) (unknown origin) self aggregation incubated for 24 hr by Thioflavin T based fluorometric assay
[31] = Acute toxicity in ICR mouse assessed as abnormal behavior at 1200 mg/kg, po and measured after 4 hrs; type: organism-based; details: in vivo
[32] = Acute toxicity in ICR mouse assessed as mortality at 1200 mg/kg, po and measured after 14 days; type: organism-based; details: in vivo, 336 h, time 14 day
[33] = target: T1, Amyloid-beta precursor protein; assay: Inhibition of AChE induced HFIP-pretreated amyloid beta (1 to 42 ) (unknown origin) aggregation at 0.1 to 10 uM incubated for 24 hr by Thioflavin T based fluorometric assay; details: dose 0.1-10 µM
Mus musculus [34] = assay: Antialzheimer activity in human oligo-merized amyloid beta (1 to 42 residues)-induced cognitive impairment C57BL/6 mouse model assessed as decrease IL-1beta level in cortex at 15 mg/kg,ip qd for 10 days by ELISA; type: functional, organism-based; details: time 10.0 day
[35] = Acute toxicity in ICR mouse assessed as abnormal behavior at 1200 mg/kg, po and measured after 24 hrs; type: organism-based; details: in vivo
Mus musculus [36] = assay: Antialzheimer activity in human oligo-merized amyloid beta (1 to 42 residues)-induced cognitive impairment C57BL/6 mouse model assessed as decrease in escape latency at 15 mg/kg,ip qd for 10 days by Morris water maze test relative to control; type: functional, organism-based; details: time 10.0 day
[37] = Acute toxicity in ICR mouse assessed as abnormal behavior at 1200 mg/kg, po and measured after 14 days; type: organism-based; details: in vivo, 336 h, time 14 day
Mus musculus [38] = assay: Antialzheimer activity in human oligo-merized amyloid beta (1 to 42 residues)-induced cognitive impairment C57BL/6 mouse model assessed as increase in percentage of time spent in the target quadrant at 15 mg/kg,ip qd for 10 days by Morris water maze test relative to control; type: functional, organism-based; details: time 10.0 day
[39] = Metal chelating activity assessed as Al3+-compound complex formation by measuring red shift in presence of AlCl3 at 40 uM incubated for 30 mins by UV-Visible spectrophotometry
[40] = Acute toxicity in ICR mouse assessed as mortality at 1200 mg/kg, po and measured after 24 hrs; type: organism-based; details: in vivo
SH-SY5Y [41] = assay: Cytotoxicity against human SH-SY5Y cells assessed as reduction in cell viability upto 50 uM incubated for 24 hrs by MTT assay; type: toxicity, cell-based
[42] = Metal chelating activity assessed as Fe3+-compound complex formation by measuring red shift in presence of FeCl3 at 40 uM incubated for 30 mins by UV-Visible spectrophotometry
Mus musculus [43] = assay: Antialzheimer activity in scopolamine-induced cognitive impairment ICR mouse model assessed as distance to reach target at 15 mg/kg,ip qd for 10 days followed by scopolmaine-stimulation measured on day 16 by Morris water maze test (Rvb= 16.93 +/- 5.88 meter); type: functional; details: time 10 day
Acetylcholinesterase [44] = target: Acetylcholinesterase (Homo sapiens, UniProt P22303); assay: Inhibition of AChE in human SH-SY5Ycells assessed as reduction AChE activity using acetylthiocholine as substrate incubated for 24 hrs by DTNB based Ellman's method; type: cell-based, SH-SY5Y
Acetylcholinesterase (Homo sapiens, UniProt P22303), sequence (P22303 whole entry): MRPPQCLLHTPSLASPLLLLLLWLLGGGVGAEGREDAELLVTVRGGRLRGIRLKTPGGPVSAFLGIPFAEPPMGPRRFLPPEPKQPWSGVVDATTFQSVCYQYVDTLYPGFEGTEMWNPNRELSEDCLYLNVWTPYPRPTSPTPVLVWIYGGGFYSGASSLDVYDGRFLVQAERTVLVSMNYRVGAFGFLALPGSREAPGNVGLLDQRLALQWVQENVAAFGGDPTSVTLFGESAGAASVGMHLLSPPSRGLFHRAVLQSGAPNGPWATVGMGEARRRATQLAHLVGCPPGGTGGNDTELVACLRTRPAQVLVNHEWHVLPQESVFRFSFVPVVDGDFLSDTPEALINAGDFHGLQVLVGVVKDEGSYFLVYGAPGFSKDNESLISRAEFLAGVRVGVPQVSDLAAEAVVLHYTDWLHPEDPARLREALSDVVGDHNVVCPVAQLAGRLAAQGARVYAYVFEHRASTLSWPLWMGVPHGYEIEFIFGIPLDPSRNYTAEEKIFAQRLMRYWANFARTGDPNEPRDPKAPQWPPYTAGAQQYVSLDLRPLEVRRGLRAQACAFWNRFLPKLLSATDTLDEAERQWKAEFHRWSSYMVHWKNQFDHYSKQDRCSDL

Cl.Oc1cccc2ccc(/C=C/C3=CCN(Cc4ccccc4C(F)(F)F)CC3)nc12
active: Activity (SH-SY5Y [1]) | Activity [3] | Activity (SH-SY5Y [5]) | Activity [8] | Activity (SH-SY5Y [14]) | Activity (Mus musculus [15]) | Activity (SH-SY5Y [20]) | inhibition [22] | Activity (Mus musculus [23]) | Activity [24] | inhibition [26] | Activity (Mus musculus [28]) | inhibition [33] Dose-Dependent Effect | Activity (Mus musculus [34]) | Activity (Mus musculus [36]) | Activity (Mus musculus [38]) | Activity [39] | Activity [42]
0.11 µM: IC50 (Acetylcholinesterase [11])
161 µM: IC50 (Acetylcholinesterase [44])
213 µM: IC50 (SH-SY5Y [4])
138 µM: IC50 (SH-SY5Y [25])
35.22 s: Time (Mus musculus [7])
Non-Toxic: Activity [6] | Activity [9] | Activity [10] | Activity [12] | Activity [13] | Activity [16] | Activity [17] | Activity [18] | Activity [19] | Activity [27] | Activity [31] | Activity [32] | Activity [35] | Activity [37] | Activity [40] | Activity (SH-SY5Y [41])
434 µM: IC50 (SH-SY5Y [21])
1660 µM: IC50 [2]
inactive: inhibition [30]
8.05 m: Activity (Mus musculus [43])
82 µM: IC50 (SH-SY5Y [29])
